Each block holds one compound with its values, some of them ahead of it.
System: 772245-204-R-J1-PDC complex spheroid growth
Assay: Anticancer human tumor 772245-204-R-J1-PDC patient-derived rhabdomyosarcoma cell line growth inhibition [Asc]
Settings: for IC50: curve of first compound; for viability, T/C: stronger effect = lower value
Procedure, shortened: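 Tumor cells were grown as multicellular spheroids with stromal HUVEC and mesenchymal stem cells and treated singly or in combination. Concentrations fell in half-log steps from the clinical Cmax, or from 10 microM where none was known.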
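Note: compound exposure lasted seven days.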
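Throughout, for viability, T/C: 100% = DMSO vehicle control viability.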

- IC50 (second compound 0.03 µM): > 3 µM
- IC50 (second compound 0.0949 µM): > 3 µM
- IC50 (second compound 0.3 µM): > 3 µM
- IC50 (second compound 0.949 µM): > 3 µM
- IC50 (second compound 3 µM): 2.74 µM
Compound: Cc1nc(N2CCC3(CC2)COC(C)C3N)c(CO)nc1Sc1ccnc(N)c1Cl (configuration not stated) + CCN1C(C(=O)NC23CCC(C(=O)O)(CC2)CC3)C(c2cccc(Cl)c2F)C2(C(=O)Nc3cc(Cl)ccc32)C12CCCCC2
- viability, T/C (second compound 0.03 µM, first compound 0.00949 µM): 94.9%
- viability, T/C (second compound 0.03 µM, first compound 0.03 µM): 120%
- viability, T/C (second compound 0.03 µM, first compound 0.0949 µM): 108%
- viability, T/C (second compound 0.03 µM, first compound 0.3 µM): 102%
- viability, T/C (second compound 0.03 µM, first compound 0.949 µM): 76.9%
- viability, T/C (second compound 0.03 µM, first compound 3 µM): 56.9%
- viability, T/C (second compound 0.0949 µM, first compound 0.00949 µM): 97.1%
- viability, T/C (second compound 0.0949 µM, first compound 0.03 µM): 100%
- viability, T/C (second compound 0.0949 µM, first compound 0.0949 µM): 119%
- viability, T/C (second compound 0.0949 µM, first compound 0.3 µM): 93.3%
- viability, T/C (second compound 0.0949 µM, first compound 0.949 µM): 84.1%
- viability, T/C (second compound 0.0949 µM, first compound 3 µM): 51%
- viability, T/C (second compound 0.3 µM, first compound 0.00949 µM): 111%
- viability, T/C (second compound 0.3 µM, first compound 0.03 µM): 110%
- viability, T/C (second compound 0.3 µM, first compound 0.0949 µM): 88.3%
- viability, T/C (second compound 0.3 µM, first compound 0.3 µM): 85.3%
- viability, T/C (second compound 0.3 µM, first compound 0.949 µM): 77.8%
- viability, T/C (second compound 0.3 µM, first compound 3 µM): 52%
- viability, T/C (second compound 0.949 µM, first compound 0.00949 µM): 113%
- viability, T/C (second compound 0.949 µM, first compound 0.03 µM): 109%
- viability, T/C (second compound 0.949 µM, first compound 0.0949 µM): 109%
- viability, T/C (second compound 0.949 µM, first compound 0.3 µM): 97.5%
- viability, T/C (second compound 0.949 µM, first compound 0.949 µM): 75.7%
- viability, T/C (second compound 0.949 µM, first compound 3 µM): 52%
- viability, T/C (second compound 3 µM, first compound 0.00949 µM): 75.6%
- viability, T/C (second compound 3 µM, first compound 0.03 µM): 92.5%
- viability, T/C (second compound 3 µM, first compound 0.0949 µM): 85.7%
- viability, T/C (second compound 3 µM, first compound 0.3 µM): 71.9%
- viability, T/C (second compound 3 µM, first compound 0.949 µM): 62.6%
- viability, T/C (second compound 3 µM, first compound 3 µM): 48.5%

- IC50 (second compound 0.00316 µM): > 10 µM
- IC50 (second compound 0.01 µM): > 10 µM
- IC50 (second compound 0.0316 µM): > 10 µM
- IC50 (second compound 0.1 µM): > 10 µM
- IC50 (second compound 0.316 µM): > 10 µM
- IC50 (second compound 1 µM): > 10 µM
Compound: C#Cc1c(F)ccc2cc(O)cc(-c3ncc4c(N5CC6CCC(C5)N6)nc(OCC56CCCN5CC(F)C6)nc4c3F)c12 (configuration not stated) + CNC(C)C(=O)NC1CN(S(=O)(=O)c2cccc(S(=O)(=O)N3CCC4CCC(C(=O)NC(c5ccccc5)c5ccccc5)N4C(=O)C(NC(=O)C(C)NC)C3)c2)CCC2CCC(C(=O)NC(c3ccccc3)c3ccccc3)N2C1=O
- viability, T/C (second compound 0.00316 µM, first compound 0.0316 µM): 104%
- viability, T/C (second compound 0.00316 µM, first compound 0.1 µM): 104%
- viability, T/C (second compound 0.00316 µM, first compound 0.316 µM): 92.4%
- viability, T/C (second compound 0.00316 µM, first compound 1 µM): 102%
- viability, T/C (second compound 0.00316 µM, first compound 3.16 µM): 89.2%
- viability, T/C (second compound 0.00316 µM, first compound 10 µM): 79%
- viability, T/C (second compound 0.01 µM, first compound 0.0316 µM): 101%
- viability, T/C (second compound 0.01 µM, first compound 0.1 µM): 88%
- viability, T/C (second compound 0.01 µM, first compound 0.316 µM): 91%
- viability, T/C (second compound 0.01 µM, first compound 1 µM): 104%
- viability, T/C (second compound 0.01 µM, first compound 3.16 µM): 86.5%
- viability, T/C (second compound 0.01 µM, first compound 10 µM): 64.1%
- viability, T/C (second compound 0.0316 µM, first compound 0.0316 µM): 92.7%
- viability, T/C (second compound 0.0316 µM, first compound 0.1 µM): 93.8%
- viability, T/C (second compound 0.0316 µM, first compound 0.316 µM): 89.6%
- viability, T/C (second compound 0.0316 µM, first compound 1 µM): 101%
- viability, T/C (second compound 0.0316 µM, first compound 3.16 µM): 107%
- viability, T/C (second compound 0.0316 µM, first compound 10 µM): 71.8%
- viability, T/C (second compound 0.1 µM, first compound 0.0316 µM): 100%
- viability, T/C (second compound 0.1 µM, first compound 0.1 µM): 93.4%
- viability, T/C (second compound 0.1 µM, first compound 0.316 µM): 95.8%
- viability, T/C (second compound 0.1 µM, first compound 1 µM): 89%
- viability, T/C (second compound 0.1 µM, first compound 3.16 µM): 101%
- viability, T/C (second compound 0.1 µM, first compound 10 µM): 67.8%
- viability, T/C (second compound 0.316 µM, first compound 0.0316 µM): 94.2%
- viability, T/C (second compound 0.316 µM, first compound 0.1 µM): 67.8%
- viability, T/C (second compound 0.316 µM, first compound 0.316 µM): 82%
- viability, T/C (second compound 0.316 µM, first compound 1 µM): 96.5%
- viability, T/C (second compound 0.316 µM, first compound 3.16 µM): 92.4%
- viability, T/C (second compound 0.316 µM, first compound 10 µM): 68%
- viability, T/C (second compound 1 µM, first compound 0.0316 µM): 78.9%
- viability, T/C (second compound 1 µM, first compound 0.1 µM): 96.2%
- viability, T/C (second compound 1 µM, first compound 0.316 µM): 93.3%
- viability, T/C (second compound 1 µM, first compound 1 µM): 83%
- viability, T/C (second compound 1 µM, first compound 3.16 µM): 80%
- viability, T/C (second compound 1 µM, first compound 10 µM): 63.9%
